Data taken from patent US9242943B2, “1,4 oxazines as BACE1 and/or BACE2 inhibitors” (SIENA BIOTECH S.P.A., priority 2011, dated 2016).
One block for each compound: values may come before it.

What was measured:
BACE1 = BACE1 (Homo sapiens (Human), UniProt P56817); experiment: Cellular Aβ-lowering assay (Aβ40 ELISA, HEK293 cells expressing human APP695); type: cell-based; conditions: HEK293 cells stably transfected with human APP695; 18-20 hrs incubation; Aβ40 in supernatant; read-out: BACE1 cell act. Aβ40 IC50
Protocol: Cellular Aβ-Lowering Assay:
Human HEK293 cells which are stably transfected with a vector expressing a cDNA of the human APP wt gene (APP695) were used to assess the potency of the compounds in a cellular assay. The cells were seeded in 96-well microtiter plates in cell culture medium (Iscove, plus 10% (v/v) fetal bovine serum, glutamine, penicillin/streptomycin) to about 80% confluence and the compounds were added at a 10× concentration in 1/10 volume of medium without FCS containing 8% DMSO (final concentration of DMSO was kept at 0.8% v/v). After 18-20 hrs incubation at 37° C. and 5% CO2 in a humidified incubator the culture supernatant was harvested for the determination of […] concentrations. 96well ELISA plates (e.g., Nunc MaxiSorb) were coated with monoclonal antibody which specifically recognize the C-terminal end of […] (Brockhaus et al., NeuroReport 9, 1481-1486; 1998). After blocking of non-specific binding sites with e.g. 1% BSA and washing, the culture supernatants were added in suitable dilutions together with a horseradish peroxidase-coupled Aβ detection antibody (e.g., antibody 4G8, Senetek, Maryland Heights, Mo.) and incubated for 5 to 7 hrs. Subsequently the wells of the microtiter plate were washed extensively with Tris-buffered saline containing 0.05% Tween 20 and the assay was developed with tetramethylbenzidine/H2O2 in citric acid buffer. After stopping the reaction with one volume 1 N H2SO4 the reaction was measured in an ELISA reader at 450 nm wavelength. The concentrations of Aβ in the culture supernatants were calculated from a standard curve obtained with known amounts of pure Aβ peptide.

CYP2C9 = CYP2C9 (Homo sapiens (Human), UniProt P11712); experiment: CYP inhibition assay, human liver microsomes, diclofenac 4' hydroxylase; type: in vitro ADME; conditions: pooled human liver microsomes, diclofenac substrate; read-out: CYP IC50 2C9
Protocol: (§1) Inhibition of cytochromes P450 (CYPs) 2C9, 2D6 and 3A4 was assessed using human liver microsomes and CYP-selective substrate metabolism reactions. 50 μl incubations were made up containing (finally) 0.2 mg/ml pooled human liver microsomes, 5 μM substrate (diclofenac for CYP2C9 [4′ hydroxylase], dextromethorphan for CYP2D6 [O-demethylase] or midazolam for CYP3A4 [1′ hydroxylase]), 0.25 μl, DMSO containing test inhibitor and NADPH regenerating system. Test inhibitor concentrations of 50, 16.7, 5.6, 1.9, 0.6 and 0.2 μM were assessed in singlicate. Incubations were prewarmed to 37° C. for 10 minutes before initiation by addition of NADPH regenerating system. Incubations were quenched after 5 minutes (20 minutes for dextromethorphan) by addition of 50 μl cold acetonitrile containing 20 ng/ml 4-OH-diclofenac-13C6, 20 ng/mL dextrorphan-D3 and 20 ng/mL 1-OH-midazolam-D4. Quenched incubates were stored at −20° C. for at least 1 hour before centrifugation (20,000×g, 20 minutes). Supernatants were removed and diluted 1:1 with water prior to analysis using a RapidFire sample injector system and API4000 mass spectrometer. Peak areas for substrate, metabolite and stable-labelled metabolite standard were determined using MS/MS. […] The percentage of (DMSO) control activity was calculated for each incubate and IC50 values estimated by non-linear regression. […]

BACE2 = BACE2 (Rattus norvegicus (Rat), UniProt Q6IE75); experiment: Assay for BACE inhibition by measuring cellular TMEM27 cleavage (INS-TMEM27 cells, ELISA); type: cell-based; conditions: INS-TMEM27 (INS1e-derived) cells; shed TMEM27 in supernatant; read-out: BACE2 cell act. IC50
Description: Assay for BACE Inhibition by Measuring Cellular TMEM27 Cleavage:
The assay uses the principle of inhibition of human TMEM27 cleavage by endogenous cellular BACE2 in the Ins1e rat cell line and shedding from the cell surface into the culture medium, followed by detection in an ELISA assay. Inhibition of BACE2 prevents the cleavage and shedding in a dose-dependent manner
The stable cell line “INS-TMEM27” represents an INS1e-derived cell line with inducible expression (using the TetOn system) of full-length hTMEM27 in a doxycycline-dependent manner. The cells are cultured throughout the experiment in RPMI1640 +Glutamax (Invitrogen) Penicillin/Streptomycin, 10% Fetal bovine serum, […], […], 100 micrograms/ml G418 and 100 microgram/ml hygromycin and are grown inadherent culture at 37° C. in a standard CO2 cell culture incubator.
INS-TMEM27 cells are seeded in 96-well plates. After 2 days in culture, BACE2 inhibitor is added in a range of concentrations as required by the assay and after a further two hours, doxycycline is added to a final concentration of 500 ng/ml. The cells are incubated for a further 46 hours and the supernatant harvested for detection of shed TMEM27.
An ELISA assay (using a pair of mouse anti-human-TMEM27 antibodies, raised against the extracellular domain of TMEM27) is used for detection of TMEM27 in the culture medium. An EC50 for BACE2 inhibition is calculated using the ELISA readout for each inhibitor concentration with standard curve-fitting software such as XLFit for the Excel spreadsheet program.

CYP2D6 = CYP2D6 (Homo sapiens (Human), UniProt P10635); experiment: CYP inhibition assay, human liver microsomes, dextromethorphan O-demethylase; type: in vitro ADME; conditions: pooled human liver microsomes, dextromethorphan substrate; read-out: CYP IC50 2D6
Protocol: as §1

CYP3A4 = CYP3A4 (Homo sapiens (Human), UniProt P08684); experiment: CYP inhibition assay, human liver microsomes, midazolam 1' hydroxylase; type: in vitro ADME; conditions: pooled human liver microsomes, midazolam substrate; read-out: CYP IC50 3A4
Protocol: as §1

[1] = target: recombinant human cathepsin E (Homo sapiens (Human), UniProt P14091); experiment: Cathepsin E fluorescent substrate kinetic assay (MR121); type: biochemical; conditions: pH 4.5, substrate MR121-CKLVFFAEDW
Description: (§2) Cathepsin D and Cathepsin E Fluorescent Substrate Kinetic Assays General Assay Principle
(§3) The MR121 fluorescence assays described below are based on the fact that MR121 forms a non-fluorescent ground state complex with tryptophan. In solution this formation occurs at millimolar concentrations of tryptophan. The mechanism can be used to design a generic biochemical assay for proteases. A substrate peptide is labeled at the N-terminus with tryptophan and at the C-terminus with the fluorophore MR121 (for cathepsin D the 10 amino acid peptide WTSVLMAAPC-MR121 was used; for cathepsin E, MR121-CKLVFFAEDW was used). In absence of protease activity, the substrates remain intact and the MR121 fluorescence is reduced by the high local Trp-concentration. If the substrates are cleaved by the enzymes the MR121 fluorescence is recovered.
(§4) The fluorescent substrate cathepsin D and cathepsin E kinetic assays were performed at room temperature in 384-well microtiter plates (black with clear flat bottom, non binding surface plates from Corning) in a final volume of 51 μl. […] The enzymatic reaction was followed in a plate: vision reader (Perkin Elmer) (excitation wavelength: 630 nm; emission: 695 nm) for at least 30 minutes in a kinetic measurement detecting an increase of MR121 fluorescence during the reaction time. […]

[2] = target: cathepsin D (from human liver) (Homo sapiens (Human), UniProt P07339); experiment: Cathepsin D fluorescent substrate kinetic assay (MR121); type: biochemical; conditions: pH 5.5, substrate WTSVLMAAPC-MR121
Description: as §2, §3, §4

Chain of BACE1 (P56817 46-501): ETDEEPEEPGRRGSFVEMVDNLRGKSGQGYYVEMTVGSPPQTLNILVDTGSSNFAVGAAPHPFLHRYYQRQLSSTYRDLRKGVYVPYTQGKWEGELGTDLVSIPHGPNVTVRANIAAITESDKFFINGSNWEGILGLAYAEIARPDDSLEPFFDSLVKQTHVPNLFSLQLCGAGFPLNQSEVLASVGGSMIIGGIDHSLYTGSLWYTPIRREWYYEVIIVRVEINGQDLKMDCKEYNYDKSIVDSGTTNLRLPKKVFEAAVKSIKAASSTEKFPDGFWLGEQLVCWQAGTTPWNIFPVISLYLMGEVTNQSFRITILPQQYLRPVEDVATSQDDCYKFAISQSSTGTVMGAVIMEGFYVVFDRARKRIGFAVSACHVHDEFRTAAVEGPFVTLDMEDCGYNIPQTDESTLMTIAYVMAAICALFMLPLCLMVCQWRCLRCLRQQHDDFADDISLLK
Chain of BACE2 (Q6IE75 63-514): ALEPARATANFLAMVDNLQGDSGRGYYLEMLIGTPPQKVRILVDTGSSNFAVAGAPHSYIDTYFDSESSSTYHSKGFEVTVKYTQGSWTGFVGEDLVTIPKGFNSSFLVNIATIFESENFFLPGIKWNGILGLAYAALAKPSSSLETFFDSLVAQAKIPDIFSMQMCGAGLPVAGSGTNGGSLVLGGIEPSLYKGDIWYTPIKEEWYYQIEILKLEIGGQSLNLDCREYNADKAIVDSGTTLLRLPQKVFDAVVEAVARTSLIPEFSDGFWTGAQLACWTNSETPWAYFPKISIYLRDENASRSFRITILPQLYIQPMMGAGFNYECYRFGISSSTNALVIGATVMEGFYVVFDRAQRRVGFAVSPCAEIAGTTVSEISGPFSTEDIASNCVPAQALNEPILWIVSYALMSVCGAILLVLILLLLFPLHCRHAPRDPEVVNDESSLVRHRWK
Chain of cathepsin D (from human liver) (P07339 169-412): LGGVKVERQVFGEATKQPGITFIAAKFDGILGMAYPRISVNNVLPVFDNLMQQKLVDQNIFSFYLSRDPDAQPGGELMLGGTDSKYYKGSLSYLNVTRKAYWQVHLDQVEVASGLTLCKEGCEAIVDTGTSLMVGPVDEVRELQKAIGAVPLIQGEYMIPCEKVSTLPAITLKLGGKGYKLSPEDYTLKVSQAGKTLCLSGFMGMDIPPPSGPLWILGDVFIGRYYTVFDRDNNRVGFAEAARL
Chain of cathepsin D (from human liver) (P07339 65-162): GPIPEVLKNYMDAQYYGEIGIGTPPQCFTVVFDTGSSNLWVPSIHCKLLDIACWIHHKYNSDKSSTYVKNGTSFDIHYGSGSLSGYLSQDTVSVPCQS
Chain of CYP2C9 (P11712 whole entry): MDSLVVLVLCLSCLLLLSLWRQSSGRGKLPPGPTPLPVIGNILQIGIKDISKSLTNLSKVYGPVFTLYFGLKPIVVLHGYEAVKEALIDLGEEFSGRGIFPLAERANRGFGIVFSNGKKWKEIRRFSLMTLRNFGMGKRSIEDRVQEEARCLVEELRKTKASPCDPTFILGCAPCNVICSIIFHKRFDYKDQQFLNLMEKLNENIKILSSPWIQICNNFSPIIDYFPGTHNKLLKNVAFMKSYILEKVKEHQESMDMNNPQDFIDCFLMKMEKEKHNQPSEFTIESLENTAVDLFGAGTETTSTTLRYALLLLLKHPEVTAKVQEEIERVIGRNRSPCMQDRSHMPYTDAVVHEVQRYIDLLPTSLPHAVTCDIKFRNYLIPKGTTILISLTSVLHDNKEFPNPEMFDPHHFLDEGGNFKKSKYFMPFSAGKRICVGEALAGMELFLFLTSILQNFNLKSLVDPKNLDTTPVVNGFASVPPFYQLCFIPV
Chain of CYP2D6 (P10635 whole entry): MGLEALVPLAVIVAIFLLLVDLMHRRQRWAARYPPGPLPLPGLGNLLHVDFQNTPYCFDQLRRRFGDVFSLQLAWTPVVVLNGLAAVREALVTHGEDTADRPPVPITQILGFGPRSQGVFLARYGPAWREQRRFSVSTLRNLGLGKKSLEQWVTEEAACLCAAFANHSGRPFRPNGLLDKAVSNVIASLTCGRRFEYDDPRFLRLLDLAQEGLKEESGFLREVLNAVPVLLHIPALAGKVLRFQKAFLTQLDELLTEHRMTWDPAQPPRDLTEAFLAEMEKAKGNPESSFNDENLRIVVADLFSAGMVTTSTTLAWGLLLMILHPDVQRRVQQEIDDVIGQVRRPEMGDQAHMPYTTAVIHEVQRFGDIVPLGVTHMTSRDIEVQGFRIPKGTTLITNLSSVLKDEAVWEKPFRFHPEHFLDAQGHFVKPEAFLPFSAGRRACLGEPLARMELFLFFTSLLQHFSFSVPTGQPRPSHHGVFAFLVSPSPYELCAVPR
Chain of CYP3A4 (P08684 whole entry): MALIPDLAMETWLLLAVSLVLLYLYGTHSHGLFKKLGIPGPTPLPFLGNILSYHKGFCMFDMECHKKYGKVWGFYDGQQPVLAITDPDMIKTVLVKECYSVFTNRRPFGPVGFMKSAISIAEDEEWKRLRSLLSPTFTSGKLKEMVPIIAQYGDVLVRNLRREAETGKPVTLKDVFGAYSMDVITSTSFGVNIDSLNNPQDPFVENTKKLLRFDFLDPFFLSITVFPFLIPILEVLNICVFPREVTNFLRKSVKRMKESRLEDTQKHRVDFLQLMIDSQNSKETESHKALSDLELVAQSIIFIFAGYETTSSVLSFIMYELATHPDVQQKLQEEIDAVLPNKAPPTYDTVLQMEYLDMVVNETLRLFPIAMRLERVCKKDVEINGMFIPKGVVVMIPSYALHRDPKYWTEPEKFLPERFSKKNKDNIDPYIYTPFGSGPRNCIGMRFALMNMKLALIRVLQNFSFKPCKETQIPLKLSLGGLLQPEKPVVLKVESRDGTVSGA
Chain of recombinant human cathepsin E (P14091 54-396): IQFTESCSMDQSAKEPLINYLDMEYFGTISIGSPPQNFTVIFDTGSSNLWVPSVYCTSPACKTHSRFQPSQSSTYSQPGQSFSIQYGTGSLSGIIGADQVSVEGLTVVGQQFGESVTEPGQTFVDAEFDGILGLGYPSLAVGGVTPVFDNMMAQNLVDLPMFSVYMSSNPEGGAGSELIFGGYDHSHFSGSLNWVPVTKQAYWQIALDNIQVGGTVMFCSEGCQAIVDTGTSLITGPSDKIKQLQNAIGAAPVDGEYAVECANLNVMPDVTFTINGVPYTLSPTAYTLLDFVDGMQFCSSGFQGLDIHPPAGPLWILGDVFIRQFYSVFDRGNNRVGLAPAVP

SMILES: C[C@@]1(c2cc(Nc3cc(Cl)cc4cc(Cl)cnc34)ccc2F)COCC(N)=N1 [Example 27, [3-((R)-5-Amino-3-methyl-3,6-dihydro-2H-[1,4]oxazin-3-yl)-4-fluoro-phenyl]-(3,6-dichloro-quinolin-8-yl)-amine]
- IC50 (BACE1): 660 nM
- IC50 (CYP2C9): > 50 µM
- IC50 (BACE2): 558 nM
- IC50 (CYP2D6): 4.5 µM
- IC50 (CYP3A4): 33 µM

SMILES: C[C@@]1(c2cc(Nc3cccc4cc(OC(F)F)cnc34)ccc2F)COCC(N)=N1 [Example 29, [3-((R)-5-Amino-3-methyl-3,6-dihydro-2H-[1,4]oxazin-3-yl)-4-fluoro-phenyl]-(3-difluoromethoxy-quinolin-8-yl)-amine]
- IC50 (BACE1): 270 nM
- IC50 (BACE2): 2300 nM
- IC50 [1]: 17.6 µM
- IC50 [2]: 21.1 µM

SMILES: C[C@@]1(c2cc(Nc3ccon3)ccc2F)COCC(N)=N1 [Example 33, (R)-5-[2-Fluoro-5-(isoxazol-3-ylamino)-phenyl]-5-methyl-5,6-dihydro-2H-[1,4]oxazin-3-ylamine]
- IC50 (BACE1): 580 nM
- IC50 (BACE2): 1210 nM

SMILES: Cn1nc(Nc2ccc(F)c([C@@]3(C)COCC(N)=N3)c2)c2ccc(Cl)cc21 [Example 34, (S)-5-(5-(6-chloro-1-methyl-1H-indazol-3-ylamino)-2-fluorophenyl)-5-methyl-5,6-dihydro-2H-1,4-oxazin-3-amine]
- IC50 (BACE1): 1040 nM
- IC50 (CYP2C9): 6.7 µM
- IC50 (BACE2): 1480 nM
- IC50 (CYP2D6): 2 µM
- IC50 (CYP3A4): 25 µM

SMILES: C[C@]1(c2cc(NC3CCc4cc(Cl)ccc43)ccc2F)COCC(N)=N1 (stereo partly drawn) [Example 35, (S)-5-[5-(5-Chloro-indan-1-ylamino)-2-fluoro-phenyl]-5-methyl-5,6-dihydro-2H-[1,4]oxazin-3-ylamine]
- IC50 (BACE1): 100 nM
- IC50 (BACE2): 732 nM

- IC50 (BACE1): 250 nM
- IC50 [1]: 5 µM
- IC50 [2]: 2.6 µM
SMILES: CC1(c2cccc(Nc3cc(F)cc4cc(Cl)cnc34)c2)COCC(N)=N1 (stereo not shown) [Example 36, [3-(5-Amino-3-methyl-3,6-dihydro-2H-[1,4]oxazin-3-yl)-phenyl]-(3-chloro-6-fluoro-quinolin-8-yl)-amine]

SMILES: C[C@@]1(c2cc(NC3CCc4cc(Cl)cnc43)ccc2F)COCC(N)=N1 (stereo partly drawn) [Example 40, [3-((R)-5-Amino-3-methyl-3,6-dihydro-2H-[1,4]oxazin-3-yl)-4-fluoro-phenyl]-(3-chloro-6,7-dihydro-5H-[1]pyrindin-7-yl)-amine]
- IC50 (BACE1): 320 nM
- IC50 (BACE2): 1100 nM

SMILES: C[C@@]1(c2cc(Nc3ccccc3OCC(F)F)ccc2F)COCC(N)=N1 [Example 41, (R)-5-{5-[2-(2,2-Difluoro-ethoxy)-phenylamino]-2-fluoro-phenyl}-5-methyl-5,6-dihydro-2H-[1,4]oxazin-3-ylamine]
- IC50 (BACE1): 2140 nM
- IC50 (BACE2): 10 nM
